Five compounds from ChEMBL document CHEMBL5303573, “Mapping human microbiome drug metabolism by gut bacteria and their genes” (Nature, 2019) can be followed below.

For data set [1] the following is noted: victivallis vadensis, 12 h, 2 µM.
Description: The drug is tested on Victivallis vadensis strain: ATCC BAA-548 for biotransformation. The drug concentrations were measured before and after a 12-h incubation by liquid-chromatography-coupled mass spectrometry (LC–MS)
Data set [2] can be described thus: The drug is tested on Clostridium symbiosum strain: ATCC14940 for biotransformation. The drug concentrations were measured before and after a 12-h incubation by liquid-chromatography-coupled mass spectrometry (LC–MS). As to conditions: 2 µM.
Data set [3] in a line: The drug is tested on Dorea formicigenerans strain: ATCC27755 for biotransformation. The drug concentrations were measured before and after a 12-h incubation by liquid-chromatography-coupled mass spectrometry (LC–MS). The settings on record: 2 µM.
For data set [4] the following is noted: parabacteroides distasonis, 12 h, 2 µM.
Description: The drug is tested on Parabacteroides distasonis strain: ATCC8503 for biotransformation. The drug concentrations were measured before and after a 12-h incubation by liquid-chromatography-coupled mass spectrometry (LC–MS)
A further data set concerns the target T1, Flavodoxin (Collinsella aerofaciens, UniProt A4ED08).
T1 sequence (A4ED08 whole entry): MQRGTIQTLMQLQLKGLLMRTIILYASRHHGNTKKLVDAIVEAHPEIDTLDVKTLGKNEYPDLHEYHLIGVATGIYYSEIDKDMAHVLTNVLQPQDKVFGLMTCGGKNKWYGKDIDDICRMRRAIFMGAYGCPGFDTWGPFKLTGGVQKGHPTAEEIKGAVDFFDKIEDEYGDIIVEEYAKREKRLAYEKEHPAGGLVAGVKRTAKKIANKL
Briefly: (§1) The drug is tested on Collinsella aerofaciens strain: ATCC25986 for biotransformation. The drug concentrations were measured before and after a 12-h incubation by liquid-chromatography-coupled mass spectrometry (LC–MS). Type of data set: ADME. The arrangement: dose 2 uM. The settings on record: 2 µM.

The target of data set [5] is T2, GDSL-like protein (Collinsella aerofaciens, UniProt A4E7D0).
T2 sequence (A4E7D0 whole entry): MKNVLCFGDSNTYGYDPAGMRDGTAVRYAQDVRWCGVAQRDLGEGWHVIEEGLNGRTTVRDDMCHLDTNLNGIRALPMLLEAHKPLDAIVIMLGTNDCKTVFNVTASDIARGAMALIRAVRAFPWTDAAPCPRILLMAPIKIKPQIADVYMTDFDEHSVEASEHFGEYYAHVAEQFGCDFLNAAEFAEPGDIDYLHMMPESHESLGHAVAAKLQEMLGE
The data set is described as §1. Type of data set: ADME. On the set-up: dose 2 uM. As to conditions: 2 µM.

Data set [6] addresses T3, GDSL-like protein (Collinsella aerofaciens, UniProt A4E8S4).
T3 sequence (A4E8S4 whole entry): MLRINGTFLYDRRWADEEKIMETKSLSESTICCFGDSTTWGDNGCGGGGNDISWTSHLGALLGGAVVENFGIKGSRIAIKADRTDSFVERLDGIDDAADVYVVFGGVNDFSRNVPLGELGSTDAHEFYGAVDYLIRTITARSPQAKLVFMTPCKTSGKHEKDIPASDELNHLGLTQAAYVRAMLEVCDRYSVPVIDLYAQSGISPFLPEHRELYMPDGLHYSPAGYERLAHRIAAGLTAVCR
The data set is described as §1. Type of data set: ADME. On the set-up: dose 2 uM. As to conditions: 2 µM.

The next data set concerns the target T4, Diguanylate cyclase (Collinsella aerofaciens, UniProt A4EB91).
T4 sequence (A4EB91 whole entry): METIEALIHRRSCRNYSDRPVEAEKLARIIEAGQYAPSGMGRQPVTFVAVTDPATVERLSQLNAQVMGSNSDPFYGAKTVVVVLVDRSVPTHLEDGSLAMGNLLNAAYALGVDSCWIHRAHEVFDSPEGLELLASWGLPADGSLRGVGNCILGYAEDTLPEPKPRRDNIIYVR
The data set is described as §1. On the set-up: dose 2 uM. Type of data set: ADME. As to conditions: 2 µM.

Data set [7] addresses T5, Pyridine nucleotide-disulfide oxidoreductase (Collinsella aerofaciens, UniProt A4EBM5).
T5 sequence (A4EBM5 whole entry): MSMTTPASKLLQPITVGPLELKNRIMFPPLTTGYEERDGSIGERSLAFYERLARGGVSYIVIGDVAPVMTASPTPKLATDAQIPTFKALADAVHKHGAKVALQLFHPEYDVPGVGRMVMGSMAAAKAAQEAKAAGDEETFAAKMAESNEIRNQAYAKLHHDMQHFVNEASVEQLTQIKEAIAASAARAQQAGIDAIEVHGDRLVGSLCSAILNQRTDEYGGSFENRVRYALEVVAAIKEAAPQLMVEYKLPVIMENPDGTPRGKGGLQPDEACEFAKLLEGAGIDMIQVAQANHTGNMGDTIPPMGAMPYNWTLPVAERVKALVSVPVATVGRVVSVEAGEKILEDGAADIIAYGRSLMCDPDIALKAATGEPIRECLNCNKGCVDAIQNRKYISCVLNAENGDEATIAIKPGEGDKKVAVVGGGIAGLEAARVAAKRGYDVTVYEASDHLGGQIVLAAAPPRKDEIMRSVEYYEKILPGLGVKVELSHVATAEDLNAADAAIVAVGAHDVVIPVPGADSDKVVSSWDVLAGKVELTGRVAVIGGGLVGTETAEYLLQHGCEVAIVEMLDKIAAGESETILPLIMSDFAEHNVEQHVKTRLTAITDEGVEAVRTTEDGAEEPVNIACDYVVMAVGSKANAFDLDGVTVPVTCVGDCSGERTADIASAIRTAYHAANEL
The data set is described as §1. Type of data set: ADME. On the set-up: dose 2 uM. The settings on record: 2 µM.

Data set [8] is described as follows: The drug is tested on Bacteroides cellulosilyticus strain: DSM14838 for biotransformation. The drug concentrations were measured before and after a 12-h incubation by liquid-chromatography-coupled mass spectrometry (LC–MS). The settings on record: 2 µM.
A short description of data set [9]: The drug is tested on Eggerthella lenta strain: ATCC25559 for biotransformation. The drug concentrations were measured before and after a 12-h incubation by liquid-chromatography-coupled mass spectrometry (LC–MS). The settings on record: 2 µM.
Data set [10] in a line: The drug is tested on Providencia stuartii strain: ATCC25827 for biotransformation. The drug concentrations were measured before and after a 12-h incubation by liquid-chromatography-coupled mass spectrometry (LC–MS). As to conditions: 2 µM.

Molecules are shown by their SMILES.

As for `CC(=O)OCC(=O)[C@@]1(OC(C)=O)[C@@H](C)C[C@H]2[C@@H]3C[C@H](F)C4=CC(=O)C=C[C@]4(C)[C@@]3(F)[C@@H](O)C[C@@]21C` [DIFLORASONE DIACETATE], the “Bacterial Biotransformation” value is reported as “Compound metabolized” in [1]; “Compound metabolized” in [2]; “Compound NOT metabolized” in [3]; “Compound metabolized” in data set [4]; “Compound NOT metabolized” on Flavodoxin; “Compound NOT metabolized” at GDSL-like protein [5]. Besides, the “Bacterial Biotransformation” value was “Compound metabolized” at GDSL-like protein [6], “Compound NOT metabolized” at Diguanylate cyclase, “Compound NOT metabolized” in data set [7] and “Compound metabolized” in data set [8].

As to `N#Cc1ccc2c(c1)N(CCCN1CCC(O)CC1)c1ccccc1S2` [PERICIAZINE], the “Bacterial Biotransformation” value was “Compound NOT metabolized” in [1]; “Compound NOT metabolized” in data set [2]; “Compound NOT metabolized” in [3]; “Compound metabolized” in data set [4]; “Compound NOT metabolized” on Flavodoxin; “Compound NOT metabolized” on GDSL-like protein [5]. Moreover, the “Bacterial Biotransformation” value (on GDSL-like protein [6]; on Diguanylate cyclase; in data set [7]; in [9]) was “Compound NOT metabolized” each time.

With `CC(=O)OCC(CCn1cnc2cnc(N)nc21)COC(C)=O` [FAMCICLOVIR], the “Bacterial Biotransformation” value is “Compound metabolized” in data set [1]; “Compound NOT metabolized” in data set [2]; “Compound NOT metabolized” in data set [3]; “Compound metabolized” in [4]; “Compound NOT metabolized” at Flavodoxin; “Compound NOT metabolized” on GDSL-like protein [5]. The “Bacterial Biotransformation” value at GDSL-like protein [6] is on record as “Compound metabolized”; on Diguanylate cyclase, “Compound NOT metabolized”; in data set [7] it was “Compound NOT metabolized”; in [8] it was “Compound metabolized”; in data set [10], “Compound NOT metabolized”.

As for `COc1ccc([C@@H]2Sc3ccccc3N(CCN(C)C)C(=O)[C@@H]2OC(C)=O)cc1` [DILTIAZEM], the “Bacterial Biotransformation” value in data set [1] is recorded as “Compound metabolized”; in data set [2], “Compound metabolized”; in data set [3], “Compound metabolized”; in data set [4], “Compound metabolized”; on Flavodoxin, “Compound NOT metabolized”; at GDSL-like protein [5] it was “Compound NOT metabolized”. The “Bacterial Biotransformation” value at GDSL-like protein [6] is “Compound NOT metabolized”; on Diguanylate cyclase it was “Compound NOT metabolized”; in data set [7], “Compound NOT metabolized”; in data set [8], “Compound metabolized”; in data set [9], “Compound metabolized”.

In the case of `C#C[C@]1(OC(C)=O)CC[C@H]2[C@@H]3CCC4=CC(=O)CC[C@@H]4[C@H]3CC[C@@]21C` [NORETHINDRONE ACETATE], the “Bacterial Biotransformation” value in data set [1] was “Compound NOT metabolized”; in [2] it was “Compound metabolized”; in [3] it was “Compound NOT metabolized”; in data set [4], “Compound NOT metabolized”; at Flavodoxin, “Compound NOT metabolized”; on GDSL-like protein [5] it was “Compound NOT metabolized”. Further, the “Bacterial Biotransformation” value at GDSL-like protein [6] is “Compound NOT metabolized”; on Diguanylate cyclase, “Compound NOT metabolized”; in data set [7] it was “Compound NOT metabolized”; in [8], “Compound metabolized”.
